Source: patent publication US8461125B2, “Compositions and methods to treat asthma” (The Children's Hospital of Philadelphia, priority 2008, dated 2013)

How the values were obtained:
cAMP PDE4 activity = assay: cAMP PDE activity in isolated rabbit ASM tissues after pro-asthmatic sensitization; settings: FIG. 7B; rabbit ASM tissues sensitized 24 hr with IgE immune complexes
rabbit ASM tissues = assay: Constrictor and relaxation responsiveness in isolated rabbit ASM tissues (organ bath, isometric tension); settings: rabbit ASM tissues exposed 24 hr to IgE immune complexes, pretreatment 10 μM
From the text: The following materials and methods are provided to facilitate practice of the present invention: • Materials: All chemicals were purchased from Sigma-Aldrich unless otherwise indicated. The human ASM cells were obtained from BioWhittaker, Inc. • Animals: Adult New Zealand White rabbits were used in this study, which was approved by the Biosafety and Animal Research Committee of the Joseph Stokes Research Institute at Children's Hospital of Philadelphia. The animals had no signs of respiratory disease for several weeks before the study, and their care and use were in accordance with the “Guide for the Care and Use of Laboratory Animals” prepared by the Institute of Laboratory Animal Resources, National Research Council. • Immunization protocol: Rabbits were actively immunized by an intra-peritoneal injection of 1 ml of an emulsion containing ovalbumin (OVA; 2.5 mg in PBS) mixed in equal part with adjuvant, administered each week for 3 weeks and, thereafter, every alternate week for a one month period. Non-immunized rabbits receiving injections with PBS alone served as controls. Thereafter, the rabbits were challenged by airway administration of a 3% solution of OVA. […]

CD23a mRNA = assay: siRNA-mediated knockdown of CD23a mRNA expression in cultured human ASM cells (RT-PCR); format: cell-based; settings: 100 nM each siRNA duplex; for CD23a mRNA expression (constitutive): FIG. 2, human ASM cells, control conditions, Oligofectamine-mediated transfection; for CD23a mRNA expression in IL-13-treated ASM cells / CD23a mRNA expression in vehicle-exposed ASM cells: FIG. 3, Oligofectamine transfection; for CD23a mRNA expression in IL-13-treated ASM cells: human ASM cells exposed 12 hr to IL-13 (50 ng/ml); for CD23a mRNA expression in vehicle-exposed ASM cells: human ASM cells exposed 12 hr to vehicle
From the text: The following materials and methods are provided to facilitate practice of the present invention: • Materials: All chemicals were purchased from Sigma-Aldrich unless otherwise indicated. The human ASM cells were obtained from BioWhittaker, Inc. • Animals: Adult New Zealand White rabbits were used in this study, which was approved by the Biosafety and Animal Research Committee of the Joseph Stokes Research Institute at Children's Hospital of Philadelphia. The animals had no signs of respiratory disease for several weeks before the study, and their care and use were in accordance with the “Guide for the Care and Use of Laboratory Animals” prepared by the Institute of Laboratory Animal Resources, National Research Council. • Immunization protocol: Rabbits were actively immunized by an intra-peritoneal injection of 1 ml of an emulsion containing ovalbumin (OVA; 2.5 mg in PBS) mixed in equal part with adjuvant, administered each week for 3 weeks and, thereafter, every alternate week for a one month period. Non-immunized rabbits receiving injections with PBS alone served as controls. Thereafter, the rabbits were challenged by airway administration of a 3% solution of OVA. […] Approximately 40 ml of blood was then drawn via an ear vein from each of the immunized and control rabbits for preparation of asthmatic and non-asthmatic serum samples to be used for subsequent passive sensitization of ASM tissue segments isolated from naïve rabbits, as described below. • siRNA-mediated knockdown of CD23 in cultured ASM cells: Human ASM cells were grown in SmBm media supplemented with 10% FBS (BioWhittaker) and maintained throughout in a humidified incubator containing 5% CO2 in air at 37° C. The experimental protocols involved seeding the cells into 6-well plates and, at ˜40% confluency, the medium was replaced with the reduced serum-containing medium, Opti-MEM (Invitrogen). Separate preparations of cells were then transfected twice during a 24-hr interval with each of four different siRNA duplexes targeted against human CD23, using Oligofectamine (Invitrogen) as the transfection agent. The siRNA preparations were purchased from Applied Biosystems and comprised the following nucleotide sequences:
Additionally, cell preparations were also transfected with either a pool of these CD23-directed siRNA duplexes, a non-targeted negative control (scrambled) siRNA duplex, or a negative control duplex labeled with the […], Cy™3, to visualize siRNA transfection efficiency. The siRNAs were applied to each well at a final concentration of 100 nM for each siRNA duplex. After 3 days, the cells were exposed for 12 hr to either vehicle alone or the pro-asthmatic cytokine, IL-13 (50 ng/ml), which is known to upregulate CD23 expression in human monocytes. The cells were subsequently examined for induced changes in mRNA expression of CD23a. • Detection of CD23 mRNA transcripts: Total RNA was extracted from the cultured ASM cells using the TRIzol method (Invitrogen), and cDNAs were isolated by RT-PCR using the SuperScript First Strand Synthesis System kit from Invitrogen, with the following oligonucleotide primer sets (Integrated DNA Technologies): for CD23a, (SEQ ID NO: 11) 5′-[…]-3′ (forward) and (SEQ ID NO: 12) 5′-[…]-3′ (reverse); and for β-actin, (SEQ ID NO: 13) 5′-[…]-3′ (forward) and (SEQ ID NO: 14) 5′-[…]-3′ (reverse). The reaction volume was 20 μl and cycling conditions used were 35 cycles of 30 sec denaturation at 95° C., followed by 30 sec annealing at 60° C. and elongation at 72° C. for 30 sec. Ex-Tag (Takara Biotechnology) was used as DNA polymerase. • Pharmacodynamic studies of constrictor and relaxation responsiveness in rabbit ASM tissues: Following initial sedation and subsequent general anesthesia with intramuscular injections of xylazine (10 mg/kg) and ketamine (50 mg/kg), respectively, rabbits were sacrificed with an intravenously administered overdose of sodium pentobarbital (100 mg/kg). […]

Compound | Induced upregulation of cAMP PDE4 activity (cAMP PDE4 activity) | Induced pro-asthmatic change in constrictor responsiveness to ACh (rabbit ASM tissues; FIG. 5A) | Induced pro-asthmatic change in relaxation responsiveness to isoproterenol (rabbit ASM tissues; FIG. 5B) | CD23a mRNA expression (constitutive) (CD23a mRNA) | CD23a mRNA expression in IL-13-treated ASM cells (CD23a mRNA) | CD23a mRNA expression in vehicle-exposed ASM cells (CD23a mRNA) | CD23a mRNA expression (constitutive) (CD23a mRNA; listed as 111060) | CD23a mRNA expression (constitutive) (CD23a mRNA; listed as 106645)
COc1ccc(C2CNC(=O)C2)cc1OC1CCCC1 (centres unmarked) [rolipram] | inhibitory effect | prevented | prevented |  |  |  |  | 
#111062: siRNA duplex against human CD23 (Applied Biosystems): sense 5′-CGAAGCUUCAGAUUUGCUGtt-3′, antisense 5′-CAGCAAAUCUGAAGCUUCGtt-3′ (sense CGAAGCUUCAGAUUUGCUGTT; antisense CAGCAAAUCUGAAGCUUCGTT; chemistry not given here) |  |  |  | no effect | no effect | no effect |  | 
#111060: siRNA duplex against human CD23 (Applied Biosystems): sense 5′-GGAAUUGAACGAGAGGAACtt-3′, antisense 5′-GUUCCUCUCGUUCAAUUCCtg-3′ (sense GGAAUUGAACGAGAGGAACTT; antisense GUUCCUCUCGUUCAAUUCCTG; chemistry not given here) |  |  |  | distinctly inhibited | markedly inhibited | markedly inhibited | marked inhibition | 
#106644: siRNA duplex against human CD23 (Applied Biosystems): sense 5′-GGAGGUGACAAAGCUAAGGtt-3′, antisense 5′-CCUUAGCUUUGUCACCUCCtc-3′ (sense GGAGGUGACAAAGCUAAGGTT; antisense CCUUAGCUUUGUCACCUCCTC; chemistry not given here) |  |  |  | no effect | no effect | no effect |  | 
#106645: siRNA duplex against human CD23 (Applied Biosystems): sense 5′-GGUGACAAAGCUAAGGAUGtt-3′, antisense 5′-CAUCCUUAGCUUUGUCACCtc-3′ (sense GGUGACAAAGCUAAGGAUGTT; antisense CAUCCUUAGCUUUGUCACCTC; chemistry not given here) |  |  |  | distinctly inhibited | markedly inhibited | markedly inhibited |  | marked inhibition
